1 molecule from patent US8492374B2, “Azaazulene compounds” (Industrial Technology Research Institute, priority 2009, dated 2013) can be followed below.

The target in one test is T1, FLT-3 kinase (Homo sapiens, UniProt P36888).
T1 construct: human FLT-3 (Arg571-Ser993); GST (N); purchased Cell Signaling Technology HTScan FLT-3 Kinase Assay Kit; host or cells: baculovirus expression system
T1 sequence (P36888 571-993): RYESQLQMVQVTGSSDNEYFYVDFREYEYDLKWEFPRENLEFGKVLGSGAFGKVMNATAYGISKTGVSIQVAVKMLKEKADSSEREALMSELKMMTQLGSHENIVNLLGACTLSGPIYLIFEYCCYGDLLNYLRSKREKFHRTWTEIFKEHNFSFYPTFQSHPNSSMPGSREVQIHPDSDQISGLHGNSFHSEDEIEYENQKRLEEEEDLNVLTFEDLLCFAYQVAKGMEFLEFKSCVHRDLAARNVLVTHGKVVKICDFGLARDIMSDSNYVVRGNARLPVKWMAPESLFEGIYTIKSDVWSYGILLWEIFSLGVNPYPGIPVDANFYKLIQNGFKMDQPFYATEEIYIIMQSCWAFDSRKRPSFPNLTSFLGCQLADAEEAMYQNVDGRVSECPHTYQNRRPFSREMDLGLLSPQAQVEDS
The test is described as follows: FLT-3 kinase DELFIA assay (HTScan FLT-3 Kinase Assay Kit). The format is biochemical. The settings on record: 20 uM ATP.

A further test has as its target T2, KDR kinase (Homo sapiens, UniProt P35968).
T2 construct: human VEGFR-2 (Val789-Val1356); GST (N); purchased Cell Signaling Technology HTScan VEGFR-2 Kinase Assay Kit; host or cells: baculovirus expression system
The test is described as follows: KDR kinase DELFIA assay (HTScan VEGFR-2 Kinase Assay Kit). In kind it is biochemical. Conditions: 20 uM ATP. As for the experimental part:
Azaazulene Compounds of this invention were treated for their efficacy in inhibiting activities of FLT-3, c-KIT and KDR kinases by biochemical DELFIA (Dissociation Enhanced Lanthanide FIA) assays according to the procedure described below. The assays were conducted by, Division of Cell Engineering, Biomedical Engineering Research Laboratories, Industrial Technology Research Institute, Bldg. 53, 195, sec. 4, Chung Hsing Rd. Chutung, Hsinchu, Taiwan 310, R.O.C.
The KDR assay was conducted following the protocol described in Protocol for HTScan™ VEGFR-2 Kinase Assay Kit (Cell Signaling Technology™).

In test [1] the test system is MV4-11 (FLT3-ITD) subcutaneous tumor xenograft. The test is described as follows: MV4-11 subcutaneous tumor xenograft model. The format is in vivo, BALB/c nude mice. The settings on record: for tumor complete regression of all mouse: oral gavage. As for the experimental part: The procedures for establishing tumor xenografts and the dosing of B26 were carried out and accordance with ITRI institutional animal care and use committee in an IACUC. Female BALB/c nude mice (6 to 8 weeks old) were purchased from BioLASCO Co., Ltd. (Taipei, Taiwan). Female BALB/c nude mice were implanted subcutaneously in the right flank with 1×10^7 MV4-11 (FLT3-ITD) cells per mice. Treatments were initiated when tumors were 150 to 200 mm^3 in size. Mice were randomly assigned into cohorts (typically 4 mice per group for efficacy studies). B26 (50 and 150 mg/kg, bid.) and vehicle were given via oral gavage for 14 days from the 16th day after inoculation. Tumor volumes were assessed everyday and body weights were assessed two times weekly. Caliper measurements of tumors were converted into mean tumor volume using the formula: 0.5×[length×(width)^2].
Compound B26 of this invention is a novel and potent FLT3 inhibitor with promising anti-tumor and anti-leukemia activity.

T2 sequence (P35968 789-1356): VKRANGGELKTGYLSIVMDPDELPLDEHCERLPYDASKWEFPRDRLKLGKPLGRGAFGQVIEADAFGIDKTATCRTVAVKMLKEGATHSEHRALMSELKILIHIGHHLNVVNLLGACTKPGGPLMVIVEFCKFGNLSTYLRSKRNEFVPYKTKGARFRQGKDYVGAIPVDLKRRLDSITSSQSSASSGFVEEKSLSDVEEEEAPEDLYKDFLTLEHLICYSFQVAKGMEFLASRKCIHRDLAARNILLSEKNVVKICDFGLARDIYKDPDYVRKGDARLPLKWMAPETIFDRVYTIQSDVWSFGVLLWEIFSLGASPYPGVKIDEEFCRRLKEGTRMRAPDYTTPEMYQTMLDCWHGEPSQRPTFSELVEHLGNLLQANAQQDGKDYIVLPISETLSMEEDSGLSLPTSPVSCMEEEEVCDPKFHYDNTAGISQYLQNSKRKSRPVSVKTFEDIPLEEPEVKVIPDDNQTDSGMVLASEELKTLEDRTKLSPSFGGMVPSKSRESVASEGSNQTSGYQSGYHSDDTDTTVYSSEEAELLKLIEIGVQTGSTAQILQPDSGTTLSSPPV

With `CN1CCN(c2ccc3[nH]c(-c4c5cccccc-5[nH]c4=O)nc3c2)CC1` [Compound B26], the inhibition at 0.1 µM against FLT-3 kinase (0.1 uM compound) stood at 45.6%; on KDR kinase (0.1 uM compound, read-out: Kinases inhibitory activities against KDR kinase, 0.1 uM) it was 71.3%. The inhibition at 1 µM on FLT-3 kinase (1 uM compound) stood at 91.2%; on KDR kinase (1 uM compound, read-out: Kinases inhibitory activities against KDR kinase, 1 uM), 96.9%. The “tumor complete regression of all mouse” value is 9 days in test [1] (50 mg/kg (bid)) and 7 days in test [1] (150 mg/kg (bid)). Also, in test [1] (oral, 50 or 150 mg/kg bid for 14 days), the antitumor effect entry was “potent and significant antitumor effect in a dose-dependent manner”.
